Biological target: at least one kinase selected from Aurora A, Aurora B, EGF-R, ERBB2, PDGFR, IGF1-R, VEGF-R2, VEGF-R3, EPHB4, Tie2, and SRC
Experiment: 33PanQinase Activity Assay (protein kinase assay)
Assay type: biochemical
Conditions: on at least one kinase of the listed panel, or on at least two kinases from at least two different molecular mechanisms of tumor progression; recombinant human kinases, 1 µM ATP
Experimental: The effect of the benzazole derivatives was tested on recombinant, human protein kinases. All protein kinases were expressed in Sf9 insect cells as human recombinant GST-fusion proteins or as His-tagged proteins by means of the baculovirus expression system. Protein kinases were purified by affinity chromatography using either GSH-agarose or Ni-NTH-agarose. The purity and identity of each was checked by SDS-PAGE/silver staining and by western blot analysis with specific antibodies. A proprietary protein kinase assay (^33PanQinase® Activity Assay) was used for measuring the kinase activity. All kinase assays were performed in 96-well FlashPlates™ in a 50 µl reaction volume. The assay for all enzymes contained 60 mM HEPES-NaOH, pH 7.5, 3 mM MgCl2, 3 mM MnCl2, 3 µM Na-orthovanadate, 1.2 mM DTT, 50 µg/ml PEG20000 and 1 µM [γ-^33P]-ATP (approx. 5x10^5 cpm per well). The reaction cocktails were incubated at 30°C for 80 minutes. The reaction was stopped with 50 µl of 2% (v/v) H3PO4, plates were aspirated and washed two times with 200 µl of 0.9% (w/v) NaCl. Incorporation of ^33Pi was determined with a microplate scintillation counter. All assays were performed with a BeckmanCoulter/ Sagian robotic system.

Row | IC50 | Compound
1 | < 0.5 µM | COc1cc2ncnc(Nc3ccc4nc(NC(=O)c5ccccc5)oc4c3)c2cc1OC [Example 1, N-[6-(6,7-Dimethoxyquinazolin-4-ylamino)benzoxazol-2-yl]benzamide]
2 | < 0.5 µM | COc1cc2ncnc(Nc3ccc4nc(NC(=O)c5ccccc5)sc4c3)c2cc1OC [Example 2, N-[6-(6,7-Dimethoxyquinazolin-4-ylamino)benzothiazol-2-yl]benzamide]
3 | < 0.5 µM | COc1cc2c(Nc3ccc4nc(NC(=O)c5ccccc5)sc4c3)ncnc2cc1OCCCN1CCN(C)CC1 [Example 5, N-(6-{6-Methoxy-7-[3-(4-methylpiperazin-1-yl)propoxy]quinazolin-4-yl-amino}benzothiazol-2-yl)benzamide]
4 | < 0.5 µM | Cc1cc(Nc2ccnc(Nc3ccc4nc(NC(=O)c5ccccc5)sc4c3)n2)n[nH]1 [Example 9, N-{6-[4-(5-Methylpyrazol-3-ylamino)pyrimidin-2-ylamino]benzothiazol-2-yl}benzamide]
5 | < 0.5 µM | O=C(Nc1nc2cc(Nc3ncnc4nc[nH]c34)ccc2s1)c1ccccc1 [Example 11, N-[5-(Purin-6-ylamino)benzothiazol-2-yl]benzamide]
